This is an account of results in BindingDB's records for doi:10.1007/bf00168610 (UniversitÄT Heidelberg, 1991).

The target in experiment [1] is T1, Adenosine receptor A1 (Bos taurus, UniProt P28190).
T1 sequence (P28190 whole entry): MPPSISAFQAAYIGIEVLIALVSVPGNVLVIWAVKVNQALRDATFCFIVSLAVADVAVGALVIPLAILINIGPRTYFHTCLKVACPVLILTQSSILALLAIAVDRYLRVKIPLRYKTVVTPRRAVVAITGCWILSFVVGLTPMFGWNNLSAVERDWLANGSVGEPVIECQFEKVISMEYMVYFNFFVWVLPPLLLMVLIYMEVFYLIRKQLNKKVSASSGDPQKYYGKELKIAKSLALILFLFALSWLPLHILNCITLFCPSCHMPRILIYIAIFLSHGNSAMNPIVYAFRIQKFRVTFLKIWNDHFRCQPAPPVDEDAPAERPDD

For the next experiment, the target named is P2Y purinoceptor 2 (Cricetulus griseus, UniProt P58825).
Another experiment deals with T2, Adenosine receptor A3 (Ovis aries, UniProt P35342).
T2 sequence (P35342 whole entry): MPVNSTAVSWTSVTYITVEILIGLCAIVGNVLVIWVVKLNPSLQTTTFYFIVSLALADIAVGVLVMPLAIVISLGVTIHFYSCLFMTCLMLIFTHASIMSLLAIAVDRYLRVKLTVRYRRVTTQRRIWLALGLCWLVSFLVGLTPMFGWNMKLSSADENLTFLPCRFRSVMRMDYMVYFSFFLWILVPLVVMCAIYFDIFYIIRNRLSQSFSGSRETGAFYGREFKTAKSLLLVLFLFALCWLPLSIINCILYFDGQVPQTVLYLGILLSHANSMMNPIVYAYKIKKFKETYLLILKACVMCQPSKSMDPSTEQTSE

Experiment [2] has as its target T3, Adenosine receptor A1 (Cavia porcellus, UniProt P47745).
T3 sequence (P47745 whole entry): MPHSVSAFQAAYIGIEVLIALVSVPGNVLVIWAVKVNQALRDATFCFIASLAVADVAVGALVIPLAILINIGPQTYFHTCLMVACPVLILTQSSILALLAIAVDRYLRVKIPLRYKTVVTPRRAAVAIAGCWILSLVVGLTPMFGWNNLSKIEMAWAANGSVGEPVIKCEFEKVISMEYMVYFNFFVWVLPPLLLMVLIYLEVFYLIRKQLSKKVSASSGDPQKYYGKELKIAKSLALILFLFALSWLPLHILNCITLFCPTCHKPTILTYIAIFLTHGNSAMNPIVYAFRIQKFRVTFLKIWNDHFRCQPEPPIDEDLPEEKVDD

The target in experiment [3] is T4, Adenosine receptor A1 (Rattus norvegicus, UniProt P25099).
T4 sequence (P25099 whole entry): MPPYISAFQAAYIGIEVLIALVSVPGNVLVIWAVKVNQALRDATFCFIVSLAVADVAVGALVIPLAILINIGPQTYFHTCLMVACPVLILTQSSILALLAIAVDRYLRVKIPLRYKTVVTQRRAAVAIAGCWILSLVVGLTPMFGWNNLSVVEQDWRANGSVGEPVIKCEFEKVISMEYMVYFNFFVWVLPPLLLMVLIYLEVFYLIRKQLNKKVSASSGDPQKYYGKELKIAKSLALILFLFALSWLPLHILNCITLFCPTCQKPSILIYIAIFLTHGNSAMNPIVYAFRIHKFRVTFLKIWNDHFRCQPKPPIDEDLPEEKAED

The target in experiment [4] is T5, Adenosine receptor A1 (Oryctolagus cuniculus, UniProt P34970).
T5 sequence (P34970 whole entry): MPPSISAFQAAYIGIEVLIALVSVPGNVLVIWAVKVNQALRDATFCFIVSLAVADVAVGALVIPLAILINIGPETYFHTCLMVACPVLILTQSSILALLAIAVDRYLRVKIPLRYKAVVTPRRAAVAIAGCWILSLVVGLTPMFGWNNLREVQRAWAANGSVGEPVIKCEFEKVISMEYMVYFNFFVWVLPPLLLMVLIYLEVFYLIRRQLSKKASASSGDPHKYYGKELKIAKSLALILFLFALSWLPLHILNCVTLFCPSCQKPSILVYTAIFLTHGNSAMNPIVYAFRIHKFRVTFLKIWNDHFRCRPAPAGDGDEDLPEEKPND

Values joined by “and” are separate entries in the source; they are usually repeats but may differ in a detail not shown here. Equal entries are not always repeated.

Sequence of P2Y purinoceptor 2 (P58825 whole entry): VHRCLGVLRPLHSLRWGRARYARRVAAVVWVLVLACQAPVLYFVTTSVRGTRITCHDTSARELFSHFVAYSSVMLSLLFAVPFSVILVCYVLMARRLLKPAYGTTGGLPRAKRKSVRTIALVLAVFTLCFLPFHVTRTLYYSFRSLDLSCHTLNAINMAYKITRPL

One may read the Ki as a dissociation constant, usually derived from enzyme kinetics or from competition with a known ligand. A lower Ki goes with tighter binding. `CCCn1c(=O)c2[nH]c(C3CCCC3)nc2n(CCC)c1=O` [DPCPX]: the values for the Ki on Adenosine receptor A1 [1], at P2Y purinoceptor 2 and on Adenosine receptor A3 were 0.05 nM, 0.14 nM and 0.1 nM, respectively.

In the case of `CCCn1c(=O)c2[nH]c(-c3ccc(OCC(=O)NCCN)cc3)nc2n(CCC)c1=O` [N-(2-Amino-ethyl)-2-[4-(2,6-dioxo-1,3-dipropyl-2,3,6,9-tetrahydro-1H-purin-8-yl)-phenoxy]-acetamide], the Ki on Adenosine receptor A1 [1] was 0.03 nM; at Adenosine receptor A1 [2] it was 1.48 nM and 5.49 nM; on P2Y purinoceptor 2, 0.31 nM; on Adenosine receptor A1 [3], 0.49 nM; at Adenosine receptor A1 [4], 0.45 nM; on Adenosine receptor A3 it was 0.09 nM.

Turning to `Cn1c(=O)c2[nH]c(C3CCCC3)nc2n(C)c1=O` [NSC_1917], the Ki stood at 1.4 nM at Adenosine receptor A1 [1]; 26.1 nM at Adenosine receptor A1 [2]; 4.3 nM at P2Y purinoceptor 2; 6.3 nM on Adenosine receptor A1 [3]; 6.4 nM at Adenosine receptor A1 [4]; 2.9 nM at Adenosine receptor A3.

For the compound `Cn1c(=O)c2[nH]cnc2n(C)c1=O` [Theophylline (1,3-dimethylxanthine)], the Ki at P2Y purinoceptor 2 was 4550 nM; at Adenosine receptor A1 [4], 4710 nM; at Adenosine receptor A3, 9050 nM.
